Data published in the NIST ThermoML archive (doi:10.1021/je060271a).
± gives the expanded uncertainty stated by the source.

Settings: 343.15 K, Liquid, Vibrating tube method

CCCCC(=O)OCC(COC(=O)CCCC)(COC(=O)CCCC)COC(=O)CCCC [pentaerythritol tetrapentanoate]
Settings | mass density [kg/m3]
27496 kPa | 998.3 ± 1.2
27541 kPa | 998.4 ± 1.2
27578 kPa | 998.4 ± 1.2
27617 kPa | 998.5 ± 1.2
27662 kPa | 998.4 ± 1.2
27700 kPa | 998.5 ± 1.2
27738 kPa | 998.5 ± 1.2
27785 kPa | 998.6 ± 1.2
27824 kPa | 998.6 ± 1.2
27862 kPa | 998.5 ± 1.2
27909 kPa | 998.6 ± 1.2
27948 kPa | 998.7 ± 1.2
27987 kPa | 998.7 ± 1.2
28026 kPa | 998.7 ± 1.2
28074 kPa | 998.7 ± 1.2
28113 kPa | 998.8 ± 1.2
28153 kPa | 998.7 ± 1.2
28200 kPa | 998.8 ± 1.2
28240 kPa | 998.9 ± 1.2
28289 kPa | 998.9 ± 1.2
28330 kPa | 998.9 ± 1.2
28371 kPa | 998.8 ± 1.2
28412 kPa | 998.9 ± 1.2
28453 kPa | 999 ± 1.2
28503 kPa | 998.9 ± 1.2
28545 kPa | 999 ± 1.2
28596 kPa | 999.1 ± 1.2
28641 kPa | 999 ± 1.2
28684 kPa | 999 ± 1.2
28725 kPa | 999.2 ± 1.2
28755 kPa | 999.2 ± 1.2
28785 kPa | 999.3 ± 1.2
28821 kPa | 999.1 ± 1.2
28853 kPa | 999.3 ± 1.2
28882 kPa | 999.3 ± 1.2
28912 kPa | 999.2 ± 1.2
28948 kPa | 999.2 ± 1.2
28978 kPa | 999.3 ± 1.2
29009 kPa | 999.3 ± 1.2
29045 kPa | 999.5 ± 1.2
29076 kPa | 999.4 ± 1.2
29107 kPa | 999.3 ± 1.2
29143 kPa | 999.5 ± 1.2
29174 kPa | 999.4 ± 1.2
29204 kPa | 999.5 ± 1.2
29242 kPa | 999.5 ± 1.2
29275 kPa | 999.5 ± 1.2
29306 kPa | 999.5 ± 1.2
29338 kPa | 999.6 ± 1.2
29375 kPa | 999.6 ± 1.2
29406 kPa | 999.6 ± 1.2
29437 kPa | 999.6 ± 1.2
29474 kPa | 999.6 ± 1.2
29506 kPa | 999.7 ± 1.2
29538 kPa | 999.7 ± 1.2
29576 kPa | 999.7 ± 1.2
29607 kPa | 999.7 ± 1.2
29639 kPa | 999.8 ± 1.2
29671 kPa | 999.8 ± 1.2
29710 kPa | 999.8 ± 1.2
29741 kPa | 999.9 ± 1.2
29780 kPa | 999.8 ± 1.2
29812 kPa | 999.9 ± 1.2
29845 kPa | 999.9 ± 1.2
29878 kPa | 999.9 ± 1.2
29917 kPa | 1000 ± 1.2
29950 kPa | 999.9 ± 1.2
29983 kPa | 1000.1 ± 1.2
30022 kPa | 999.9 ± 1.2
30056 kPa | 1000 ± 1.2
30088 kPa | 999.9 ± 1.2
30128 kPa | 1000.2 ± 1.2
30194 kPa | 1000.1 ± 1.2
30227 kPa | 1000.2 ± 1.2
30266 kPa | 1000.1 ± 1.2
30299 kPa | 1000.3 ± 1.2
30333 kPa | 1000.3 ± 1.2
30374 kPa | 1000.1 ± 1.2
30407 kPa | 1000.2 ± 1.2
30441 kPa | 1000.2 ± 1.2
30480 kPa | 1000.3 ± 1.2
30514 kPa | 1000.3 ± 1.2
30549 kPa | 1000.3 ± 1.2
30590 kPa | 1000.5 ± 1.2
30624 kPa | 1000.3 ± 1.2
30658 kPa | 1000.4 ± 1.2
30698 kPa | 1000.5 ± 1.2
30733 kPa | 1000.5 ± 1.2
30767 kPa | 1000.5 ± 1.2
30808 kPa | 1000.6 ± 1.2
30843 kPa | 1000.4 ± 1.2
30878 kPa | 1000.6 ± 1.2
30919 kPa | 1000.5 ± 1.2
30954 kPa | 1000.5 ± 1.2
30990 kPa | 1000.7 ± 1.2
31031 kPa | 1000.7 ± 1.2
31067 kPa | 1000.8 ± 1.2
31103 kPa | 1000.6 ± 1.2
31138 kPa | 1000.7 ± 1.2
31181 kPa | 1000.7 ± 1.2
31216 kPa | 1000.7 ± 1.2
31252 kPa | 1000.8 ± 1.2
31294 kPa | 1000.8 ± 1.2
31330 kPa | 1000.9 ± 1.2
31366 kPa | 1000.9 ± 1.2
31409 kPa | 1001 ± 1.2
31444 kPa | 1000.8 ± 1.2
31481 kPa | 1000.8 ± 1.2
31524 kPa | 1000.8 ± 1.2
31560 kPa | 1000.9 ± 1.2
31597 kPa | 1000.9 ± 1.2
31634 kPa | 1001 ± 1.2
31678 kPa | 1001 ± 1.2
31714 kPa | 1001 ± 1.2
31758 kPa | 1001.1 ± 1.2
31795 kPa | 1001 ± 1.2
31832 kPa | 1001 ± 1.2
31876 kPa | 1001.1 ± 1.2
31913 kPa | 1001.1 ± 1.2
31950 kPa | 1001.3 ± 1.2
31995 kPa | 1001.3 ± 1.2
32033 kPa | 1001.4 ± 1.2
32074 kPa | 1001.2 ± 1.2
32111 kPa | 1001.4 ± 1.2
32156 kPa | 1001.3 ± 1.2
32194 kPa | 1001.5 ± 1.2
32232 kPa | 1001.2 ± 1.2
32278 kPa | 1001.4 ± 1.2
32438 kPa | 1001.5 ± 1.2
32476 kPa | 1001.5 ± 1.2
32563 kPa | 1001.6 ± 1.2
32604 kPa | 1001.6 ± 1.2
32643 kPa | 1001.6 ± 1.2
32691 kPa | 1001.8 ± 1.2
32730 kPa | 1001.6 ± 1.2
32769 kPa | 1001.8 ± 1.2
32816 kPa | 1001.8 ± 1.2
32856 kPa | 1001.8 ± 1.2
32896 kPa | 1001.8 ± 1.2
32943 kPa | 1001.8 ± 1.2
32983 kPa | 1001.9 ± 1.2
33024 kPa | 1001.9 ± 1.2
33064 kPa | 1001.9 ± 1.2
33114 kPa | 1002 ± 1.2
33154 kPa | 1001.9 ± 1.2
33196 kPa | 1001.9 ± 1.2
33244 kPa | 1002.1 ± 1.2
33285 kPa | 1002.1 ± 1.2
33326 kPa | 1002.2 ± 1.2
33374 kPa | 1002 ± 1.2
33416 kPa | 1002.1 ± 1.2
33457 kPa | 1002.2 ± 1.2
33507 kPa | 1002.2 ± 1.2
33548 kPa | 1002.2 ± 1.2
33591 kPa | 1002.3 ± 1.2
33641 kPa | 1002.3 ± 1.2
33684 kPa | 1002.3 ± 1.2
33726 kPa | 1002.5 ± 1.2
33778 kPa | 1002.4 ± 1.2
33822 kPa | 1002.4 ± 1.2
